From patent publication US12509465B2, “Benzoimidazole derivatives as anticancer agents” (CENTRE LEON BERARD, priority 2016, dated 2025) come the findings set out here.

The target in data set [1] is Myd88-ERK1 (Homo sapiens (Human), UniProt P27361). As to the kind of experiment: HTRF assay of MyD88-ERK1 interaction. The data set is classed as binding. The following applies: 6xHis-ERK1 7.5 nM, biotin-MyD88peptide 25 nM; read-out: IC50* (μM) on Myd88-ERK1 in HRTF Assay. From the text: (§1) [drawing 67] 2-(4-dimethylamino-phenyl)-1H-benzoimidazole-5-carboxylic acid (3-chloro-phenyl)-amide was synthesized from 2-(4-dimethylamino-phenyl)-1H-benzoimidazole-5-carboxylic acid and 3-chloro-phenylamine by following the procedure for example 1. ^1H NMR (400 MHz, DMSO-d6) δ 12.90 (s, 1H), 10.37 (s, 1H), 8.17 (s, 1H), 8.08-7.98 (m, 3H), 7.82-7.73 (m, 2H), 7.61 (d, J=8.3 Hz, 1H), 7.39 (t, J=8.1 Hz, 1H), 7.15 (ddd, J=8.0, 2.1, 0.9 Hz, 1H), 6.91-6.81 (m, 2H), 3.02 (s, 6H). MS m/z (M+H) 390.9. 2/Biological Activity 2-1/In Vitro Determination of Compound Activity by HRTF Assay Principle: In the experiment, recombinant Erk1 and Erk2, tagged with a polyhistidine stretch in their N-terminal part were used. To reproduce the interaction between ERK1/2 and Myd88, a peptide corresponding to amino acids 24-40 of Myd88 was used: biotin-Ahx-[…] with Ahx being aminohexanoic acid as a spacer (biotin-MyD88peptide). This peptide encompassed the interaction motif of Myd88 with the CD domain of ERK1/2. To perform the HTRF assay this peptide was N-terminally labelled with biotin. To detect the interaction between the peptide and Erk1 or Erk2 the following components were used: an antibody directed against the His-tag, labelled with the donor fluorophore (Europium cryptate); The streptavidine protein, labelled with the acceptor XL665 fluorophore directed against the biotin. All the components except Erk1, Erk2 and the peptide were purchased from Cisbio (Condolet, France).
(§2) Homogeneous Time Resolved Fluorescence (HTRF) assay combines two techniques: Fluorescence Resonance Energy Transfer (FRET) and Time Resolved (TR) measurement. In TR-FRET, a transfer of fluorescence between a donor and an acceptor molecule generates a signal that can then be measured. This energy transfer is only possible when both fluorophores are close enough to each other. Therefore, this method can be used to detect protein-protein interaction.
For MyD88-ERK1 interaction the reaction medium contained: 6xHis-ERK1 at 7.5 nM, biotin-MyD88peptide at 25 nM, anti-Histidine-Cryptate antibody at 1.3325 nM and XL665 labeled-Streptavidine at 3.125 nM.
(§3) Concentrations of compounds to be tested ranged from 0.1 μM to 100 μM. Stock solutions of compounds according to the invention were prepared at 10 mM in DMSO. […] The plate was incubated at room temperature for 2 hours and fluorescence was measured using a TECAN Infinite F500 Reader®.
(§4) Results are calculated as the variation of fluorescence (Delta F) between control and samples. Delta F was calculated using the following equation: [(Ratio sample-Ratio of the arithmetic mean of the control)/Ratio of the arithmetic mean of the control]×100 where ratio=(Acceptor fluorescence/Donor fluorescence)×10000. […]
For orientation: In TR-FRET formats the signal depends on donor and acceptor labels being close together.

The target in data set [2] is Myd88-ERK2 (Homo sapiens (Human), UniProt P28482). In words: HTRF assay of MyD88-ERK2 interaction. The following applies: GST-ERK2 50 nM, biotin-MyD88pep 50 nM; read-out: IC50* (μM) on Myd88-ERK2 in HRTF Assay. The data set is classed as binding.
Description: as §1, §2
For MyD88-ERK2 interaction the reaction medium contained: GST-ERK2 at 50 nM, biotin-MyD88pep at 50 nM, anti-GST-Cryptate antibody at 0.8 nM and XL665 labeled-Streptavidine at 12.5 nM.
as §3, §4

Data set [3] concerns ERK1/2. As to the kind of experiment: Cell-based assay, SRE luciferase reporter in HCT116 p53+/+ cells. Conditions: Homo sapiens, HCT-116, 2 hours pretreatment, 10% FCS stimulation. From the text:
The terms “SRE promoter” refer to “Serum response elements”, which is a DNA sequence (CC(A/T)6GG) that is used upstream of reporter genes and is known to be the binding site of the SRF (Serum response factor) proteins encoded by SRF gene identified by Gene Bank number (Gene ID: 6722, NM_003131.2). To determine the activity of the compounds on ERK1/2, Human Colon Tumor (HCT116) p53+/+ cell line stably transformed to express the luciferase reporter gene under the control of the serum response element (SRE) was used. This cell line was cultured in McCoy's medium supplemented with 10% FBS, 2 mM glutamine, 1% antibiotics and 1 μM of puromycin.
HCT116 p53+/+ SRE luciferase cells were plated in 96-well flat-bottom plate at 20,000/well and incubated at 37° C. for 36 hours. The medium was discarded and replaced by 100 μl of serum free medium for 16 hours. Cells were then pretreated for 2 hours with the compounds according to the invention at various concentrations (from 0.001 μM to 80 μM). Cells were then stimulated by addition of 10% FCS and incubated at 37° C. for four additional hours and the expression of reporter gene was assessed using the One-Glo Luciferase reagent (Promega). Luminescence was quantified after 5 minutes in a TECAN infinite M200 Reader (Männedorf, Switzerland). The results are presented below at paragraph 2-5.
A general note: A reporter such as luciferase makes a cellular process visible.

Data set [4] has as its system HCT116 cells. As to the kind of experiment: Apoptosis assay (Caspase-Glo 3/7). The data set is classed as cell-based, Human. The following applies: HCT116 p53+/+ cells, 16 h treatment, DMSO treated cells as control. The protocol: Cellular apoptosis was measured using the Caspase-Glo® 3/7 assay kit (Promega). To perform this study, HCT116 p53+/+ cells were seeded at a density of 7,000 cell/well in 96-half wells plate and maintained 24 h at 37° C. in McCoy's medium supplemented with 2 mM glutamine, 1% penicillin, 1% of streptomycin and 10% FBS. Cells were then treated with the compounds at various concentrations ranging from 1 μM to 100 μM depending on the compound. The DMSO concentration was normalized at 1% in each well and the cells were incubated for 16 h. Caspase 3/7 activity was monitored using caspase-Glo 3/7 kit according to the manufacturer instructions. Briefly, 50 μL of Caspase-Glo® 3/7 reagent was added in each well and the plates were gently agitated for 30 s and let at room temperature for an additional hour. Luminescence was then measured in a TECAN infinite 200 microplate reader. Results are expressed as the fold induction of caspase 3/7 activation using DMSO treated cells as control. The results are presented on FIGS. 1 to 3.

Sequence of Myd88-ERK2 (P28482 whole entry): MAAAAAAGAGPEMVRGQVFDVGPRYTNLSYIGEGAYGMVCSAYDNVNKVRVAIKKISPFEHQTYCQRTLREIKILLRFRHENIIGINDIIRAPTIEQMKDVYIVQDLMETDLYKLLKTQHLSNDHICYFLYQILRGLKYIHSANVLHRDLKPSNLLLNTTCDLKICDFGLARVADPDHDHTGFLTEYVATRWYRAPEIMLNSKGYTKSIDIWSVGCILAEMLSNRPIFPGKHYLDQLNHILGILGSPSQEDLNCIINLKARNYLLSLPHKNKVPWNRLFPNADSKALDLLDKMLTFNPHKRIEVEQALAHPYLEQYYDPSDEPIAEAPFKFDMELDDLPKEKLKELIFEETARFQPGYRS
Sequence of Myd88-ERK1 (P27361 whole entry): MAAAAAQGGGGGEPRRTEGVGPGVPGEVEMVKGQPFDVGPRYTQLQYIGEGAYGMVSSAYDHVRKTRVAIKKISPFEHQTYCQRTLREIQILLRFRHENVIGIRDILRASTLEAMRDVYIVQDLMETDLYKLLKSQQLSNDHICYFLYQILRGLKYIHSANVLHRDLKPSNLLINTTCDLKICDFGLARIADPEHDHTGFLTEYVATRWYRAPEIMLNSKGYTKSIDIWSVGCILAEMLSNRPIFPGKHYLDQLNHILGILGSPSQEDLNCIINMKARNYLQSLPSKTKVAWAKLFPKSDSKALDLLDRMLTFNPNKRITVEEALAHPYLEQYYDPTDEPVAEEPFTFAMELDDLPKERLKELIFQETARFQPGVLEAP

As to `CN(C)c1ccc(-c2nc3cc(NC(=O)c4ccccc4)ccc3[nH]2)cc1` [Comp. ex., reference compound], the IC50 in data set [1], in data set [2] and in data set [3] was more than 50 µM each time.

Take `CN(C)c1ccc(-c2nc3cc(C(=O)Nc4ccncc4)ccc3[nH]2)cc1` [Compound 2, 2-(4-Dimethylamino-phenyl)-1H-benzoimidazole-5-carboxylic acid pyridin-4-ylamide]: the IC50 (in general, the point on the concentration scale where inhibition reaches its midpoint) came out at 8 µM in data set [1], 11.8 µM in data set [2] and 0.32 µM in data set [3]. For the same compound, the “induction of apoptosis (fold induction of caspase 3/7 activity)” value in data set [4] is given as “induction of apoptosis”.

Turning to `COc1ccc(NC(=O)c2ccc3[nH]c(-c4ccc(N(C)C)cc4)nc3c2)cn1` [Compound 6, 2-(4-Dimethylamino-phenyl)-1H-benzoimidazole-5-carboxylic acid (6-methoxy-pyridin-3-yl)-amide], the IC50 in data set [1] turned out to be 4.44 µM; in data set [2], 2.34 µM; in data set [3] it was 0.48 µM. In data set [4], the “induction of apoptosis (fold induction of caspase 3/7 activity)” value is given as “induction of apoptosis”.

With `CCc1ccc(NC(=O)c2ccc3[nH]c(-c4ccc(N(C)C)cc4)nc3c2)cn1` [Compound 7, 2-(4-Dimethylamino-phenyl)-1H-benzoimidazole-5-carboxylic acid (6-ethylpyridin-3-yl)-amide], the IC50 stood at 6.15 µM in data set [1], 25.5 µM in data set [2] and 0.79 µM in data set [3]. Also, in data set [4], the “induction of apoptosis (fold induction of caspase 3/7 activity)” value is recorded as “induction of apoptosis”.
